Results on three compounds are retold here after publication PMC3545992, “Trisubstituted Pyrazolopyrimidines as Novel Angiogenesis Inhibitors” (PLoS ONE, 2013).

The test system of assay [1] is chorioallantoic membrane (CAM). The assay can be described thus: Chorioallantoic membrane (CAM) assay, VEGF-induced vessel formation. In kind it is in vivo, white leghorn. Conditions: 250 nmol compound with 2.5 ng VEGF per cellulose disc, 24 h. The protocol: Fertilized white leghorn eggs were incubated for 72 h at 37°C in humidified atmosphere. After transferring the growing embryo into Petri dishes, a second incubation period of 72 h followed. At day 6, cellulose discs with 2.5 ng VEGF/250 nmol compound were placed on the membrane. 2.5 ng VEGF/DMSO was used as control. Pictures were taken after 24 h of stimulation. Representative images out of at least three experiments are shown.
Fertilized white leghorn eggs were incubated for 72 h at 37°C in humidified atmosphere. After transferring the growing embryo into a Petri dish, a second incubation period of 72 h followed. At day 6, two cellulose discs, one with 2.5 ng VEGF (VEGF 165, human recombinant from PeproTech GmbH, Hamburg, Germany)/250 nmol compound and the other with 2.5 ng VEGF/DMSO as control were placed on one CAM. After 24 h of stimulation, the vascular structure in the stimulated areas of the CAM was visualized using a stereomicroscope and a CCD camera (Olympus, Munich, Germany) and pictures were taken. The cellulose disks were produced as follows: after preparing a cellulose solution (2.5% hydroxyethyl cellulose, 2% polyvinylpyrrolidone (PVP 17), 2% polyethylene glycol (PEG 400) in water), the mixture was autoclaved, resulting in a homogenized, clear solution. For each disk, 200 μl of the warm solution were filled into the preformed circles of the lid of a 96 well plate and allowed to polymerize under a laminar air flow for 48 h. Finally, the cellulose disks were removed using tweezers and stored in a sterile Petri dish until use.

Assay [2] concerns HUVECs. The assay can be described thus: Tube formation assay on Matrigel. Conditions: 10 µM, 16 h. In kind it is cell-based, human. The method, then: Figure 6 LGR 1404, 1406 and 1407 inhibit tube formation at 10 µM. HUVECs were seeded onto a matrix of growth-factor reduced Matrigel^TM in the presence or absence of the respective concentration of the compounds. After 16 h of incubation, images were taken and tube characteristics were quantified. A: Number of tubes (n = 3, mean ± SEM, * p<0.05, One Way ANOVA, Dunnett). B: Number of branching points (n = 3, mean ± SEM, * p<0.05, One Way ANOVA, Dunnett). C: Tube total length (n = 3, mean ± SEM, * p<0.05, One Way ANOVA, Dunnett). D: Representative images of the tube formation assay and the software based tube recognition (structures identified as tubes are blue) in a control (Co, left panel) and after treatment with LGR 1406 (10 µM, right panel).
Pre-cooled BD Matrigel^TM Matrix Growth Factor Reduced (GFR) (BD Biosciences, Heidelberg, Germany) was filled into the lower compartment of μ-slide Angiogenesis wells (ibidi GmbH, Martinsried, Germany) on ice. For polymerization of the Matrigel^TM Matrix, the slides were incubated at 37°C for 30 min. 12,000 HUVECs/well were seeded onto the Matrigel^TM and stimulated for 16 h. The extent of tube formation was determined by light microscopy using the TILLvisON system. Quantitative image analysis of tube length, number of branching points and tube number was performed with a software tool from Wimasis GmbH, Munich.

In another assay the test system is HMEC-1 cells. The assay can be described thus: Crystal violet proliferation assay. The conditions noted are these: HMEC-1, 72 h, read-out: IC50 endothelial cell proliferation. In kind it is cell-based, human. The method, then: HMEC-1 cells were seeded to a density of 1,500 cells/well. After 24 h of incubation, a zero point control was stained with crystal violet. The remaining cells were left untreated as positive control or treated with 0.3-1-3-10–30 µM of the indicated compounds. After 72 h additional incubation, relative proliferation was determined by crystal violet staining and quantified as absorption at 550 nm.
HMEC-1 were seeded into 96-well-plates (1,500 cells/well). After 24 h, the cells were stimulated with the indicated compounds. At the same time point, cells in a reference plate were stained with crystal violet, serving as initial cell number. After 72 hours of stimulation, cells were fixed and stained with crystal-violet solution for 10 minutes, washed with water, and air dried. Crystal violet was eluted with dissolving buffer and absorbance was measured at 550 nm (Tecan Sunrise Absorbance reader, TECAN, Crailsheim, Germany). In a parallel series of experiments, cells seeded at the same cell density as in the proliferation assays were treated with 30 µM of the respective compound for 72 h. Afterwards, 10 µg/ml propidium iodide was added for 30 min to counterstain cells for membrane integrity. Phase contrast and fluorescence images were obtained with an inverted Nikon microscope (Ti, Nikon, Düsseldorf, Germany) equipped with a 10x objective.

The test system of assay [3] is HUVECs. The assay can be described thus: Scratch assay (migration assay). In kind it is cell-based, human. Conditions: 10 µM, 16 h, HUVECs. The protocol:
A: HMEC-1 cells were seeded in the same density as for the proliferation assay and treated with the respective compound at 30 µM for 72 h to test whether reduced cell numbers in the proliferation assay are due to inhibition of proliferation or to excessive cell death. No increase of detached, obviously dead or propidium iodide positive cells was detected. B and C: Confluent layers of HUVECs were scratched and the cells were allowed to migrate for 16 h in the presence or absence of 10 µM of the compounds. B: The columns indicate the area re-covered by migrating cells (n = 3, mean ± SEM, * p<0.05, One Way ANOVA, Dunnett). C: Scratches at endpoint, representative images taken out of three experiments.
HUVECs were seeded into a 24-well plate. After reaching confluency, cells were scratched using a 100 µl pipette tip. The wounded monolayers were washed twice with PBS containing Ca^2+/Mg^2+; then growth medium containing the indicated concentration of the compounds was added. After 16 h of migration, cells were washed and subsequently fixed with 4% paraformaldehyde. […] Images were taken using the TILLvisON system (TILL Photonics GmbH, Gräfelfing, Germany) and a CCD-camera connected to an Axiovert 200 microscope (Zeiss, Oberkochen, Germany). Quantitative image analysis of the cell covered area was done by Wimasis GmbH, Munich. A completely closed scratch was set as 100% migration, the area of the original open scratch was set as 0% migration.

Molecules are shown by their SMILES. Where two headings read alike, the source gives them in different places.

Take `CC[C@H](CO)Nc1nc(NCc2ccccc2)c2n[nH]c(C(C)C)c2n1` [LGR 1404, 7-Benzylamino-5(R)-[(1-hydroxymethyl)propylamino]-3-isopropyl-1(2)H-pyrazolo[4,3-d]pyrimidine]: the VEGF-induced vessel formation result in assay [1] is recorded as “completely inhibit”. Moreover, in the assay on HUVECs [2], the “reduction of total tube length” value turned out to be 25%; the “tube and branching point numbers and total tube length (in words)” value is listed as “significant reduction”. Moreover, the IC50 in the assay on HMEC-1 cells (Homo sapiens) was 7.72 µM. In the assay with HUVECs [3], the “effect on endothelial cell migration (in words)” value (“effect” below) is “significantly decrease” and the “reduction of endothelial cell migration” value was 27%.
On to `CC(C)c1n[nH]c2c(NCc3ccccc3)nc(NC3CCCCC3N)nc12` (stereo not drawn) [LGR 1406, 5-[(2-E/Z-aminocyclohexyl)amino]-7-benzylamino-3-isopropyl-1(2)H-pyrazolo[4,3-d]pyrimidine], for which the VEGF-induced vessel formation entry in assay [1] is given as “completely inhibit”. In addition, in the assay with HUVECs [2], the “reduction of number of branching points” value worked out at 56%; the “reduction of total tube length” value turned out to be 56%; the “reduction of tube number” value was 42%; the “tube and branching point numbers and total tube length (in words)” value was “significant reduction”. For the same compound, in the assay on HMEC-1 cells, the IC50 came to 0.93 µM. Besides, in the assay on HMEC-1 cells (Homo sapiens), the IC50 is about 1 µM. Further, in the assay with HUVECs [3], the “effect” value is “significantly decrease” and the “reduction of endothelial cell migration” value is listed as 51%.
In the case of `CC(C)c1n[nH]c2c(NCc3ccccc3)nc(NC3CCC(N)CC3)nc12` (stereo not drawn) [LGR 1407, 5-[(4-E-aminocyclohexyl)amino]-7-benzylamino-3-isopropyl-1(2)H-pyrazolo[4,3-d]pyrimidine], the VEGF-induced vessel formation entry in assay [1] is “completely inhibit”. In addition, in the assay on HUVECs [2], the “reduction of number of branching points” value is 35%; the “reduction of total tube length” value was “about 30%”; the “reduction of tube number” value is “about 30%”; the “tube and branching point numbers and total tube length (in words)” value is on record as “significant reduction”. In the assay on HUVECs [2] (listed as LGR1407), the “reduction of total tube length” value is listed as 30%. In the assay with HMEC-1 cells (Homo sapiens), the IC50 was found to be 3.66 µM. Also, in the assay with HUVECs [3], the “effect” value is reported as “significantly decrease” and the “reduction of endothelial cell migration” value came to 31%.
